Source: patent publication US12180193B2, “Accelerating fibrosarcoma protein degrading compounds and associated methods of use” (Arvinas Operations, Inc., priority 2020, dated 2024)

How the values were obtained:
BRAF G466V = target: T1, BRAF G466V (Homo sapiens, UniProt P15056, G466V); assay: Cellular assay of target protein degradation, T-Rex 293 cells stably transfected with HA-BRAF G466V (HA immunofluorescence, high content imaging); assay type: cell-based; conditions: T-Rex 293 HA-BRAF G466V; for DC50: half maximal degradation, read-out: BRaf G466V DC50; for Dmax: maximum degradation observed
T1 construct: expressed in transfected cells
T1 sequence (P15056 whole entry G466V): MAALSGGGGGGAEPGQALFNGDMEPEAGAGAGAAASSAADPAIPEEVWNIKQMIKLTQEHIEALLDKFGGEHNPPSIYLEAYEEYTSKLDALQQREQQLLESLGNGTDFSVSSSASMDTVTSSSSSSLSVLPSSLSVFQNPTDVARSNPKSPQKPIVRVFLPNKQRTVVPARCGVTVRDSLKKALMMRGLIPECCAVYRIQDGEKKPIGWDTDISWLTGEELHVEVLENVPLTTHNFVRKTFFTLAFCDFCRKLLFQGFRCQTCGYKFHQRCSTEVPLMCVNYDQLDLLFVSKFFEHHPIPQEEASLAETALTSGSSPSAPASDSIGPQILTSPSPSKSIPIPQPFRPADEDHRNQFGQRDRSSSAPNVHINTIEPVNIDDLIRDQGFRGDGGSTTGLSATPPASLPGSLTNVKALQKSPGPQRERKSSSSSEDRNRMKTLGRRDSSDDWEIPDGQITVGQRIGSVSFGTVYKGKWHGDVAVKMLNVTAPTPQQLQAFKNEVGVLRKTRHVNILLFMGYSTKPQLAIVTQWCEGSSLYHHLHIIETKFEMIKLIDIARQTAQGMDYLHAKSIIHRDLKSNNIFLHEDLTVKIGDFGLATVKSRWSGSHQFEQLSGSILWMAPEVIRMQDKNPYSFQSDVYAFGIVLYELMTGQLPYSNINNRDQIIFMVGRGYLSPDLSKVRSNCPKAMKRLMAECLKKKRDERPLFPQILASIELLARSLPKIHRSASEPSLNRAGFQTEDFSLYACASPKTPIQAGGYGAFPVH
In short: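 Dose range spans 30 nM to 3 pM (0.1% DMSO) over 24 hours at 37° C, in cells induced with 0.75 ng/mL doxycycline. Fixed cells are probed with anti-HA antibody overnight at 4° C, then imaged; half-maximal degradation and maximum degradation are derived.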

BRAF V600E = target: T2, BRAF V600E (Homo sapiens, UniProt P15056, V600E); assay: Cellular assay of target protein degradation, T-Rex 293 cells stably transfected with HA-BRAF_V600E (HA immunofluorescence, high content imaging); assay type: cell-based; conditions: T-Rex 293 HA-BRAF V600E; for DC50: half maximal degradation, read-out: BRaf V600E DC50; for Dmax: maximum degradation observed
T2 construct: expressed in transfected cells
T2 sequence (P15056 whole entry V600E): as the sequence (P15056 whole entry G466V) above, with V466G, V600E counted along it
In short: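 Degradation of the HA-tagged construct is measured after 24 h treatment at 37 °C across 1 μM to 0.1 nM in 0.1% DMSO, in doxycycline-induced (1 ng/mL) cells. DC50 and Dmax come from HA fluorescence imaging.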

| SMILES | DC50 (BRAF G466V) | Dmax (BRAF G466V) | DC50 (BRAF V600E) | Dmax (BRAF V600E) |
| --- | --- | --- | --- | --- |
| O=C1CC[C@@H](N2Cc3cc(N4CCN(CC5CCN(c6ccc(-c7cnc8[nH]cc(C(=O)c9c(F)ccc(NS(=O)(=O)N%10CC[C@@H](F)C%10)c9F)c8c7)cc6)CC5)CC4)ccc3C2=O)C(=O)N1 [Compound 220, (3R)-N-{3-[5-(4-{4-[(4-{2-[(3R)-2,6-dioxopiperidin-3-yl]-1-oxo-2,3-dihydro-1H-isoindol-5-yl}piperazin-1-yl)methyl]piperidin-1-yl}phenyl)-1H-pyrrolo [2,3-b]pyridine-3-carbonyl]-2,4-difluorophenyl}-3-fluoropyrrolidine-1-sulfonamide] | 1 to 10 nM | > 70% | 5 to 50 nM | 35 to 70% |
| O=C1CC[C@H](N2Cc3cc(N4CC5(CN(CC6CCN(c7ccc(-c8cnc9[nH]cc(C(=O)c%10c(F)ccc(NS(=O)(=O)N%11CC[C@@H](F)C%11)c%10F)c9c8)cc7)CC6)C5)C4)ccc3C2=O)C(=O)N1 [Compound 221, (3R)-N-{3-[5-(4-{4-[(6-{2-[(3S)-2,6-dioxopiperidin-3-yl]-1-oxo-2,3-dihydro-1H-isoindol-5-yl}-2,6-diazaspiro[3.3]heptan-2-yl)methyl]piperidin-1-yl}phenyl)-1H-pyrrolo[2,3-b]pyridine-3-carbonyl]-2,4-difluorophenyl}-3-fluoropyrrolidine-1-sulfonamide] | 1 to 10 nM | > 70% | 5 to 50 nM | 35 to 70% |
| O=C1CC[C@@H](N2Cc3cc(N4CC5(CN(CC6CCN(c7ccc(-c8cnc9[nH]cc(C(=O)c%10c(F)ccc(NS(=O)(=O)N%11CC[C@@H](F)C%11)c%10F)c9c8)cc7)CC6)C5)C4)ccc3C2=O)C(=O)N1 [Compound 222, (3R)-N-{3-[5-(4-{4-[(6-{2-[(3R)-2,6-dioxopiperidin-3-yl]-1-oxo-2,3-dihydro-1H-isoindol-5-yl}-2,6-diazaspiro[3.3]heptan-2-yl)methyl]piperidin-1-yl}phenyl)-1H-pyrrolo[2,3-b]pyridine-3-carbonyl]-2,4-difluorophenyl}-3-fluoropyrrolidine-1-sulfonamide] | 1 to 10 nM | > 70% | 5 to 50 nM | 35 to 70% |
| O=C1CC[C@H](N2Cc3cc(N4CCC(CN5CCN(c6ccc(-c7cnc8[nH]cc(C(=O)c9c(F)ccc(NS(=O)(=O)N%10CC[C@@H](F)C%10)c9F)c8c7)cc6)CC5)CC4)ccc3C2=O)C(=O)N1 [Compound 223, (3R)-N-{3-[5-(4-{4-[(1-{2-[(3S)-2,6-dioxopiperidin-3-yl]-1-oxo-2,3-dihydro-1H-isoindol-5-yl}piperidin-4-yl)methyl]piperazin-1-yl}phenyl)-1H-pyrrolo [2,3-b]pyridine-3-carbonyl]-2,4-difluorophenyl}-3-fluoropyrrolidine-1-sulfonamide] | 1 to 10 nM | > 70% | 5 to 50 nM | 35 to 70% |
| O=C1CC[C@@H](N2Cc3cc(N4CCC(CN5CCN(c6ccc(-c7cnc8[nH]cc(C(=O)c9c(F)ccc(NS(=O)(=O)N%10CC[C@@H](F)C%10)c9F)c8c7)cc6)CC5)CC4)ccc3C2=O)C(=O)N1 [Compound 224, (3R)-N-{3-[5-(4-{4-[(1-{2-[(3R)-2,6-dioxopiperidin-3-yl]-1-oxo-2,3-dihydro-1H-isoindol-5-yl}piperidin-4-yl)methyl]piperazin-1-yl}phenyl)-1H-pyrrolo [2,3-b]pyridine-3-carbonyl]-2,4-difluorophenyl}-3-fluoropyrrolidine-1-sulfonamide] | 1 to 10 nM | > 70% | 5 to 50 nM | 35 to 70% |
| COc1cc(N2CCC(CN3CC4(C3)CN(c3ccc(-c5cnc6[nH]cc(C(=O)c7c(F)ccc(NS(=O)(=O)N8CC[C@@H](F)C8)c7F)c6c5)cc3)C4)CC2)cc2c1C(=O)N([C@@H]1CCC(=O)NC1=O)C2 [Compound 225, (3R)-N-{3-[5-(4-{6-[(1-{2-[(3R)-2,6-dioxopiperidin-3-yl]-7-methoxy-1-oxo-2,3-dihydro-1H-isoindol-5-yl}piperidin-4-yl)methyl]-2,6-diazaspiro[3.3]heptan-2-yl}phenyl)-1H-pyrrolo[2,3-b]pyridine-3-carbonyl]-2,4-difluorophenyl}-3-fluoropyrrolidine-1-sulfonamide] | 1 to 10 nM | > 70% | 5 to 50 nM | 35 to 70% |
| COc1cc(N2CCC(CN3CC4(C3)CN(c3ccc(-c5cnc6[nH]cc(C(=O)c7c(F)ccc(NS(=O)(=O)N8CC[C@@H](F)C8)c7F)c6c5)cc3)C4)CC2)cc2c1C(=O)N([C@H]1CCC(=O)NC1=O)C2 [Compound 226, (3R)-N-{3-[5-(4-{6-[(1-{2-[(3S)-2,6-dioxopiperidin-3-yl]-7-methoxy-1-oxo-2,3-dihydro-1H-isoindol-5-yl}piperidin-4-yl)methyl]-2,6-diazaspiro[3.3]heptan-2-yl}phenyl)-1H-pyrrolo[2,3-b]pyridine-3-carbonyl]-2,4-difluorophenyl}-3-fluoropyrrolidine-1-sulfonamide] | 1 to 10 nM | > 70% | 5 to 50 nM | < 35% |
| O=C1CCC(N2Cc3cc(N4CC(C5CN(CC6CCN(c7ccc(-c8cnc9[nH]cc(C(=O)c%10c(F)ccc(NS(=O)(=O)N%11CC[C@@H](F)C%11)c%10F)c9c8)cc7)CC6)C5)C4)ccc3C2=O)C(=O)N1 (stereo partly drawn) [Compound 227, (3R)-N-[3-(5-{4-[4-({1′-[2-(2,6-dioxopiperidin-3-yl)-1-oxo-2,3-dihydro-1H-isoindol-5-yl]-[3,3′-biazetidin]-1-yl}methyl)piperidin-1-yl]phenyl}-1H-pyrrolo[2,3-b]pyridine-3-carbonyl)-2,4-difluorophenyl]-3-fluoropyrrolidine-1-sulfonamide] | 1 to 10 nM | > 70% | 5 to 50 nM | < 35% |
| CCCS(=O)(=O)Nc1ccc(F)c(C(=O)c2c[nH]c3ncc(-c4ccc(N5CCC(CN6CC7(C6)CN(c6ccc8c(c6)CN([C@H]6CCC(=O)NC6=O)C8=O)C7)CC5)cc4)cc23)c1F [Compound 228, N-{3-[5-(4-{4-[(6-{2-[(3S)-2,6-dioxopiperidin-3-yl]-1-oxo-2,3-dihydro-1H-isoindol-5-yl}-2,6-diazaspiro[3.3]heptan-2-yl)methyl]piperidin-1-yl}phenyl)-1H-pyrrolo [2,3-b]pyridine-3-carbonyl]-2,4-difluorophenyl} propane-1-sulfonamide] | < 1 nM | > 70% | 5 to 50 nM | 35 to 70% |
| CCCS(=O)(=O)Nc1ccc(F)c(C(=O)c2c[nH]c3ncc(-c4ccc(N5CCC(CN6CC7(C6)CN(c6ccc8c(c6)CN([C@@H]6CCC(=O)NC6=O)C8=O)C7)CC5)cc4)cc23)c1F [Compound 229, N-{3-[5-(4-{4-[(6-{2-[(3R)-2,6-dioxopiperidin-3-yl]-1-oxo-2,3-dihydro-1H-isoindol-5-yl}-2,6-diazaspiro[3.3]heptan-2-yl)methyl]piperidin-1-yl}phenyl)-1H-pyrrolo [2,3-b]pyridine-3-carbonyl]-2,4-difluorophenyl} propane-1-sulfonamide] | 1 to 10 nM | > 70% | 5 to 50 nM | 35 to 70% |
| O=C1CC[C@H](N2Cc3cc(C4CCN(CC5CCN(c6ccc(-c7cnc8[nH]cc(C(=O)c9c(F)ccc(NS(=O)(=O)N%10CCCC%10)c9F)c8c7)cc6)CC5)CC4)ccc3C2=O)C(=O)N1 [Compound 230, N-{3-[5-(4-{4-[(4-{2-[(3S)-2,6-dioxopiperidin-3-yl]-1-oxo-2,3-dihydro-1H-isoindol-5-yl}piperidin-1-yl)methyl]piperidin-1-yl}phenyl)-1H-pyrrolo[2,3-b]pyridine-3-carbonyl]-2,4-difluorophenyl}pyrrolidine-1-sulfonamide] | < 1 nM | > 70% | 5 to 50 nM | 35 to 70% |
| O=C1CC[C@@H](N2Cc3cc(C4CCN(CC5CCN(c6ccc(-c7cnc8[nH]cc(C(=O)c9c(F)ccc(NS(=O)(=O)N%10CCCC%10)c9F)c8c7)cc6)CC5)CC4)ccc3C2=O)C(=O)N1 [Compound 231, N-{3-[5-(4-{4-[(4-{2-[(3R)-2,6-dioxopiperidin-3-yl]-1-oxo-2,3-dihydro-1H-isoindol-5-yl}piperidin-1-yl)methyl]piperidin-1-yl}phenyl)-1H-pyrrolo[2,3-b]pyridine-3-carbonyl]-2,4-difluorophenyl}pyrrolidine-1-sulfonamide] | 1 to 10 nM | > 70% | 5 to 50 nM | 35 to 70% |
| O=C1CC[C@H](N2Cc3cc(C4CCN(CC5CCN(c6ccc(-c7cnc8[nH]cc(C(=O)c9c(F)ccc(NS(=O)(=O)N%10CCC(F)(F)C%10)c9F)c8c7)cc6)CC5)CC4)ccc3C2=O)C(=O)N1 [Compound 232, N-{3-[5-(4-{4-[(4-{2-[(3S)-2,6-dioxopiperidin-3-yl]-1-oxo-2,3-dihydro-1H-isoindol-5-yl}piperidin-1-yl)methyl]piperidin-1-yl}phenyl)-1H-pyrrolo[2,3-b]pyridine-3-carbonyl]-2,4-difluorophenyl}-3,3-difluoropyrrolidine-1-sulfonamide] | 1 to 10 nM | > 70% | 5 to 50 nM | 35 to 70% |
| O=C1CC[C@@H](N2Cc3cc(C4CCN(CC5CCN(c6ccc(-c7cnc8[nH]cc(C(=O)c9c(F)ccc(NS(=O)(=O)N%10CCC(F)(F)C%10)c9F)c8c7)cc6)CC5)CC4)ccc3C2=O)C(=O)N1 [Compound 233, N-{3-[5-(4-{4-[(4-{2-[(3R)-2,6-dioxopiperidin-3-yl]-1-oxo-2,3-dihydro-1H-isoindol-5-yl}piperidin-1-yl)methyl]piperidin-1-yl}phenyl)-1H-pyrrolo[2,3-b]pyridine-3-carbonyl]-2,4-difluorophenyl}-3,3-difluoropyrrolidine-1-sulfonamide] | 1 to 10 nM | > 70% | 5 to 50 nM | 35 to 70% |
